Measurements taken from patent US10858365B2, “Triazolo-pyrimidine compounds and uses thereof” (Dizal (Jiangsu) Pharmaceutical Co., Ltd., priority 2018, dated 2020).
Read-outs that look alike come from different tables or passages of the source.

What was measured:
Type in all cases: cell-based
hA2a = hA2a (Homo sapiens (Human), UniProt P29274); assay: cAMP inhibition assay in hA2a/CHO cells; details: adenosine stimulation, read-out: cAMP & FLIPR IC50 (nM) hA2a
In short: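 CHO cells expressing human A2a, human A2b or mouse A2a, 5×10^3 cells/well, pre-incubated with compound 30 min at 37 °C, then stimulated with […] adenosine 30 min at 37 °C. cAMP read after 60 min room-temperature incubation with detection reagent.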

hA1 = hA1 (Homo sapiens (Human), UniProt P30542); assay: FLIPR inhibition assay in hADORA1/CHO (hA1 expressing) cells; details: FLIPR calcium, adenosine stimulation
In short: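 CHO cells expressing human A1 were plated at 1×10^4 cells/well the day before, then loaded with FLIPR Calcium 5 dye for 60 min at 37 °C, 5% CO2. Compounds were added at several concentrations for 400 s before stimulation with […] adenosine. The calcium signal was recorded by FLIPR.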

hA2b = hA2b (Homo sapiens (Human), UniProt P29275); assay: cAMP inhibition assay in hA2b/CHO cells; details: adenosine stimulation, read-out: cAMP & FLIPR IC50 (nM) hA2b
Protocol: (§1) hA2a/CHO, hA2b/CHO and mA2a/CHO (Genscript) were plated at 5×10^3 cells/well into 384-well polystyrene plates at the day of experiment. Compounds were pre-incubated with cells for 30 min at 37° C., 5% CO2. Then […] adenosine was added to the cells and incubated for 30 min at 37° C., 5% CO2. Detection reagent (CISBIO) was added and the plates were incubated for 60 min at room temperature. The signal was captured by Envision.

mA2a = mA2a (Mus musculus (Mouse), UniProt Q60613); assay: cAMP inhibition assay in mA2a/CHO cells; details: adenosine stimulation, read-out: cAMP & FLIPR IC50 (nM) mA2a
Protocol: as §1

[1] = hADORA1/CHO cells, read-out: cAMP & FLIPR IC50 (nM) hA1

hA1, sequence (P30542 whole entry): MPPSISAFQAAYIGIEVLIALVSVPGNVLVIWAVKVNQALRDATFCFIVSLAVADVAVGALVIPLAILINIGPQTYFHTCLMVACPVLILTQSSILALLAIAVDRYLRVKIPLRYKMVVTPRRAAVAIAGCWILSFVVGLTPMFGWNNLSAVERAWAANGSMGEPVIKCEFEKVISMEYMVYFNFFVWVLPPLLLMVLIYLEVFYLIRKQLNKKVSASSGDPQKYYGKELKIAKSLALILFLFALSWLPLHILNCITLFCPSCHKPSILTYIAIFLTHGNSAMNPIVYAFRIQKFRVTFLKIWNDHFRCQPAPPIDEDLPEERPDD
hA2b, sequence (P29275 whole entry): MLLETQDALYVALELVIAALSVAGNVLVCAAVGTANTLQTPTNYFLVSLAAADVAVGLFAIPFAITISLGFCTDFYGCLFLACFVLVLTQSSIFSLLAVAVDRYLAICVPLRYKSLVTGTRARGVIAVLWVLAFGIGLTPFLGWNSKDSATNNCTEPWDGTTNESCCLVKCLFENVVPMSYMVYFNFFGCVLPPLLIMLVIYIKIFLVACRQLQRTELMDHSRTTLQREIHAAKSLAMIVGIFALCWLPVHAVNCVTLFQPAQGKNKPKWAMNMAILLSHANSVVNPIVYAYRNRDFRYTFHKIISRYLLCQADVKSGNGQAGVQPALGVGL
mA2a, sequence (Q60613 whole entry): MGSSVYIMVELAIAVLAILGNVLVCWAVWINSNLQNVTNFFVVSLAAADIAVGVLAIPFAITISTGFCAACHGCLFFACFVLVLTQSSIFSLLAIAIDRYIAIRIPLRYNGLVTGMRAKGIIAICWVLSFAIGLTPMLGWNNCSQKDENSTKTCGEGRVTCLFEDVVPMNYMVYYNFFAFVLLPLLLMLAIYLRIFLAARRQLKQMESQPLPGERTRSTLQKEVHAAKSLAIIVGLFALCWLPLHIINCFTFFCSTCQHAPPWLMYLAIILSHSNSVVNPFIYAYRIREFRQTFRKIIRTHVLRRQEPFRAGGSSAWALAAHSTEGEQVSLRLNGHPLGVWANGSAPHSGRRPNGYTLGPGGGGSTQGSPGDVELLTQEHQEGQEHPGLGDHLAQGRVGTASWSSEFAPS
hA2a, sequence (P29274 whole entry): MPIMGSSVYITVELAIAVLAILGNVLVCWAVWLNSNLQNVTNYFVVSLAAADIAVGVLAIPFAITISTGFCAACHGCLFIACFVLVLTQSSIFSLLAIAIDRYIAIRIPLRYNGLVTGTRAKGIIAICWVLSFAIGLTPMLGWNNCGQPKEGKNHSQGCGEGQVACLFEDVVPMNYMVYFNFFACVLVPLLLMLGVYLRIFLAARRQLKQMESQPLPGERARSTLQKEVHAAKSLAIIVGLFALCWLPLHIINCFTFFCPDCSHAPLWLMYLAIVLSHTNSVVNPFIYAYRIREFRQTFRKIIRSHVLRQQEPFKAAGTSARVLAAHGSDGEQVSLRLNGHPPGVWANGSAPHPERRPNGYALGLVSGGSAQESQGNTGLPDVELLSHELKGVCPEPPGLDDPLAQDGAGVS

Structure (SMILES)	IC50 (hA2a) [nM]	IC50 (hA1; [1]) [nM]	IC50 (hA2b) [nM]	IC50 (mA2a) [nM]	IC50 (hA1; cAMP & FLIPR IC50 (nM) hA1, hADORA1/CHO cells) [nM]
Cc1cnc2ccc(-c3c(N4CCOCC4)nc(N)n4nc(Cc5ncccc5F)nc34)cn12 [Example 102, 2-((3-fluoropyridin-2-yl)methyl)-8-(3-methylimidazo[l,2-a]pyridin-6-yl)-7-morpholino-[l,2,4]tri azolo[1,5-c]pyrimidin-5-amine]	2.6	27.2	121	11.2	–
Cc1cc(-c2c(-c3ncco3)nc(N)n3nc(Cc4c(F)cccc4F)nc23)cc(C#N)n1 [Example 83, 4-(5-amino-2-(2,6-difluorobenzyl)-7-(oxazol-2-yl)-[1,2,4]triazolo[1,5-c]pyrimidin-8-yl)-6-methylpicolinonitrile]	18	923	10000	76	–
Cn1cc(-c2c(-c3ccc(F)cc3)nc(N)n3nc(Cc4cscn4)nc23)ccc1=O [Example 58, 5-[5-amino-7-(4-fluorophenyl)-2-[(1,3-thiazol-4-yl)methyl]-[1,2,4]triazolo[1,5-c]pyrimidin-8-yl]-1-methyl-1,2-dihydropyridin-2-one]	29	25	2290	47	–
COCCc1nc2c(-c3ccc4ncc(C)n4c3)c(-c3ccc(F)cc3)nc(N)n2n1 [Example 114, 7-(4-fluorophenyl)-2-(2-methoxyethyl)-8-(3-methylimidazo[1,2-a]pyridin-6-yl)-[1,2,4]triazolo[1,5-c]pyrimidin-5-amine]	0.2	5.7	40.9	0.4	–
Cn1cc(-c2c(-c3ccc(F)c(F)c3)nc(N)n3nc(Cc4ncccc4F)nc23)ccc1=O [Example 39, 5-[5-amino-7-(3,4-difluorophenyl)-2-[(3-fluoropyridin-2-yl)methyl]-[1,2,4]triazolo[1,5-c]pyrimidin-8-yl]-1-methyl-1,2-dihydropyridin-2-one]	18	15	235	39	–
Cc1ccc(-c2nc(N)n3nc(Cc4c(F)cccc4F)nc3c2-c2ccc(=O)n(C)c2)cn1 [Example 24, 5-[5-amino-2-[(2,6-difluorophenyl)methyl]-7-(6-methylpyridin-3-yl)-[1,2,4]triazolo[1,5-c]pyrimidin-8-yl]-1-methyl-1,2-dihydropyridin-2-one]	58	12	631	162	–
CC(C)n1cc(-c2c(-c3ncco3)nc(N)n3nc(Cc4ncccc4F)nc23)ccc1=O [Example 80, 5-(5-amino-2-((3-fluoropyridin-2-yl)methyl)-7-(oxazol-2-yl)-[1,2,4]triazolo[1,5-c]pyrimidin-8-yl)-1-isopropylpyridin-2(1H)-one]	3.6	25	186	4.9	–
Cc1cc(-c2c(-c3ccc(F)cc3)nc(N)n3nc(Cc4cccc(N(C)C)n4)nc23)ccn1 [Example 17, 2-((6-(dimethylamino)pyridin-2-yl)methyl)-7-(4-fluorophenyl)-8-(2-methylpyridin-4-yl)-[1,2,4]triazolo[1,5-f]pyrimidin-5-amine]	43	22	4790	51	–
Nc1nc(-c2ccc(F)cc2)c(-c2ccc3nncn3c2)c2nc(Cc3ncccc3F)nn12 [Example 72, 8-([1,2,4]triazolo[4,3-a]pyridin-6-yl)-7-(4-fluorophenyl)-2-((3-fluoropyridin-2-yl)methyl)-[1,2,4]triazolo[1,5-c]pyrimidin-5-amine]	37	9.7	1050	107	–
Nc1nc(-c2ccc(F)cc2)c(-c2ccc(=O)n(CCO)c2)c2nc(Cc3c(F)cccc3F)nn12 [Example 65, 5-(5-amino-2-(2,6-difluorobenzyl)-7-(4-fluorophenyl)-[1,2,4]triazolo[1,5-c]pyrimidin-8-yl)-1-(2-hydroxyethyl)pyridin-2(1H)-one]	0.2	17	14	0.6	–
Nc1nc(-c2ccc(F)cc2)c(-c2ccc3nccnc3c2)c2nc(Cc3ncccc3F)nn12 [Example 96, 7-(4-fluorophenyl)-2-((3-fluoropyridin-2-yl)methyl)-8-(quinoxalin-6-yl)-[l,2,4]triazolo[l,5-c] pyrimidin-5-amine]	25	681	3800	123	–
Nc1nc(-c2ccc(F)cc2)c(-c2ccc3ncsc3c2)c2nc(Cc3ncccc3F)nn12 [Example 88, 8-(benzo[d]thiazol-6-yl)-7-(4-fluorophenyl)-2-((3-fluoropyridin-2-yl)methyl)-[1,2,4]triazolo[1,5-c]pyrmidin-5-amine]	0.7	110	47	2.6	–
Nc1cc(-c2c(-c3ccc(F)cc3)nc(N)n3nc(Cc4ncccc4F)nc23)ccn1 [Example 38, 8-(2-aminopyridin-4-yl)-7-(4-fluorophenyl)-2-((3-fIuoropyridin-2-yl)methyl)-[1,2,4]triazolo[1,5-c]pyrmidin-5-amine]	41	8.6	38	263	–
CC(C)n1cc(-c2c(-c3ncco3)nc(N)n3nc(Cc4c(F)cccc4F)nc23)ccc1=O [Example 79, 5-(5-amino-2-(2,6-difluorobenzy1)-7-(oxazol-2-yl)-[1,2,4]triazolo[1,5-c]pyrimidin-8-yl)-l-isopropylpyrdin-2(1H)-one]	0.7	28	45	0.9	–
Cc1cnc(-c2nc(N)n3nc(Cc4c(F)cccc4F)nc3c2-c2ccc(=O)n(C)c2)o1 [Example 26, 5-(5-amino-2-(2,6-difluorobenzyl)-7-(5-methyloxazol-2-yl)-[l,2,4]triazolo[l,5-c]pyrimidin-8-yl)-1-methylpyridin-2(1H)-one]	15	33	457	34	–
Nc1nc(-c2ncco2)c(-c2ccc3nccn3c2)c2nc(Cc3ncccc3OC(F)F)nn12 [Example 74, 2-((3-(difluoromethoxy)pyridin-2-yl)methyI)-8-(imidazo[1,2-a]pyridin-6-yl)-7-(oxazol-2-yl)-[1,2, 4]triazolo[1,5-c]pyrimidin-5-amine]	0.8	–	14	1.2	11
Cc1cnc2ccc(-c3c(N4CCCC4)nc(N)n4nc(Cc5ncccc5F)nc34)cn12 [Example 101, 2-((3*fluoropyridin-2-yl)methyl)-8-(3-methylimidazo[1,2-a]pyridin-6-yl)-7-(pyrrolidin-1-yl)-[1,2, 4]triazolo[l,5-c]pyrimidin-5-amine]	8.2	6.6	203	58.1	–
Cc1nccc(-c2c(-c3ccc(F)cc3)nc(N)n3nc(Cc4c(F)cccc4F)nc23)c1C [Example 16, 2-(2,6-difluorobenzyl)-8-(2,3-dimethylpyridin-4-yl)-7-(4-fluorophenyl)-[1,2,4]triazolo[1,5-c] pyrimidin-5-amine]	174	205	125	758	–
Cc1cnc2ccc(-c3c(-c4ccc(F)cc4)nc(N)n4nc(CC5CCOC5)nc34)cn12 (single isomer, unassigned; isomer 1) [Example 105-1, 7-(4-fluorophenyl)-8-(3-methylimidazo[1,2-a]pyridin-6-yl)-2-((tetrahydrofuran-3-yl)methyl)-[l,2, 4]triazolo[1,5-c]pyrimidin-5-amine(isomer 1)]	0.1	14	47.5	1	–
Cc1cc(-c2c(-c3ncco3)nc(N)n3nc(Cc4c(F)cccc4F)nc23)cc(C2CC2)n1 [Example 84, 8-(2-cyclopropyl-6-methylpyridin-4-yl)-2-(2,6-difluorobenzyl)-7-(oxazol-2-yl)-[1,2,4]triazolo[1,5-c]pyrimidin-5-amine]	60	2720	10000	428	–
Nc1nc(-c2ccc(F)cc2)c(-c2ccc3nc[nH]c3c2)c2nc(Cc3ncccc3F)nn12 [Example 75, 8-(1H-benzo[d]imidazol-6-yl)-7-(4-fluorophenyl)-2-((3-fluoropyridin-2-yl)methyl)-[1,2,4]triazolo [l,5-c]pyrimidin-5-amine]	1.7	31	38	17	–
Cc1cnc2ccc(-c3c(N4CCCC4)nc(N)n4nc(Cc5c(F)cccc5F)nc34)cn12 [Example 123, 2-(2,6-difluorobenzyl)-8-(3-methylimidazo[l,2-a]pyridin-6-yl)-7-(pyrrolidin-1-yl)-[1,2,4]triazolo [1,5-c]pyrimidin-5-amine]	0.4	42.4	80.5	16.5	–
